Laboratory results reported in patent EP2114888B1, “TRICYCLIC COMPOUNDS AND THEIR USE AS GLUCOCORTICOID RECEPTOR MODULATORS” (priority 2007, dated 2008).

Experiments:
osteocalcin = assay: Serum osteocalcin suppression, 28-day repeat dose mouse model; details: in vivo
Method: (§1) The compounds were weighed and suspended in a vehicle of 0.5% methylcellulose/0.025% tween 20 (Sigma-Aldrich, St. Louis, MO). Compound suspensions were homogenized using a Polytron PT-3100 tissue homogenizer to create a very fine suspension and were then sonicated for 10 minutes using a water bath sonicator. Aliquots of each suspension were made for daily dosing at 0.2 ml/dose. Swiss Webster female mice, 10-12 weeks old, 28-29 grams, (Taconic, Germantown, NY) were used in accordance with the guidelines of the Institutional Animal Care and Use Committee and in accordance with NIH guidelines on laboratory animal welfare. Mice were acclimated in the Pfizer animal facility for three to seven days prior to being utilized in a study. […] Each treatment group contained 5-10 mice. To establish a dosing regimen for the studies, a pilot pharmacodynamic time course experiment was conducted to quantify TNFα repression after a single ED80 dose.
(§2) Body weights were measured on the first and last day of each experiment. Blood samples were obtained after three weeks of dosing for a steady-state pharmacokinetic (PK) analysis. To assess compound effects on LPS-induced TNFα, all mice received an intraperitoneal injection of LPS (Salmonella typhosa, L-7895; Sigma-Aldrich, St. Louis,) 2.5 hr after the last dose on day 28. Mice were sacrificed 90 minutes after LPS administration. Serum samples were quantified for osteocalcin and TNFα using the multiplex assays (Linco Research, Inc, St. Charles, MO; Luminex 100, Austin, TX). Samples were diluted 1:20 and the assay was run according to manufacturer's instructions. The osteocalcin standard was purchased separately (Biomedical Technologies Inc., Stoughton, MA). Mice were fasted for 4 hours before serum was collected for TNFα, and osteocalcin levels. For each experiment, outliers were detected by calculating the number of standard deviations from the mean of the group. If the value being examined was more than 2.5 standard deviations from the mean, it was excluded from the rest of the calculations.
(§3) The individual mouse percent inhibition values were fit to a four-parameter logistic model using the dose mean for each group.
(§4) ED50 and ED80 values were obtained for the various endpoints using a four-parameter logistic fit. For compounds which were tested multiple times, ED50 and ED80 values were obtained using four-parameter logistic fits of the combined data from multiple experiments.

[1] = as above; details: in vivo, po
Method: as §1, §2, §3, §4

[2] = Cortical bone histomorphometry to determine bone formation rate (BFR); assay type: in vivo, mice
Method: Calcein incorporates into the bone mineral and allows measurement of bone formation rate. Calcein was dissolved in 2% sodium bicarbonate. During the tissue harvest, the left tibiae were excised and cleaned for cortical histomorphometry measurements. After all skin and muscle were removed, tibiae were placed in 70% ethanol (4°C) in the dark for a minimum of 24 hours.
Ground transverse sections were used for histomorphometric analysis of cortical bone. Bones were sectioned using a low-speed saw (Isomet, Buehler, Lake Bluff, IL) equipped with a diamond wafer blade. The end of each tibia was removed proximal to tibia-fibula synostosis and a […] cross-section was cut. Using a roughened glass plate and a cork, sections were ground to […] until transparent and all labels were distinguishable under a fluorescent microscope. […] Using the Osteomeasure Bone Analysis Program (Osteometrics, Inc., Decatur, Georgia), bone formation rate was calculated by tracing the 1^s1 and 3rd fluorescent labels and the inner and outer perimeter of the bone. Bone formation rate was calculated by the following equation: (Inter-label width/Label interval) * (Labeled perimeter/Bone perimeter). At least five samples were measured from each treatment group in each study.

[3] = system: Mouse Collagen-induced arthritis (mCIA); assay: Traditional mouse collagen-induced arthritis (mCIA) model; assay type: in vivo, male DBA/J mice; details: mice
Method: Mouse Collagen-induced arthritis is a commonly used chronic, preclinical model of rheumatoid arthritis in which joint swelling and bone destruction occur following immunization with type II collagen. Reduction of disease incidence and severity has been shown previously to be predictive of disease-modification and signs and symptoms mitigation, respectively, in a clinical setting.
In the traditional mCIA model, male DBA/J mice were immunized with 50 µg chick type II collagen (cCII) in complete Freund's adjuvant and then boosted 21 days later with 50 µg cCII in incomplete Freund's adjuvant. Treatment with compounds was initiated on the morning of the boost and continued for 56 days. The effectiveness of treatment was measured by disease incidence (i.e., number of mice showing any sign of disease) and disease severity, both of which were measured twice a week.

Cc1ncccc1NC(=O)c1ccc2c(c1)CC[C@@H]1C[C@@](O)(C(F)(F)F)CC[C@@]21Cc1ccccc1 [Example 1, (4βS,7R,8αR)-4β-benzyl-7-hydroxy-N-(2-methylpyridin-3-yl)-7-(trifluoromethyl)-4β,5,6,7,8,8α,9,10-octahydrophenanthrene-2-carboxamide]
Serum osteocalcin EAUC50 (AUC 0-4 hr) (osteocalcin): 1300 ng·h/mL
Serum osteocalcin EAUC80 (AUC 0-4 hr) (osteocalcin): 4200 ng·h/mL
Osteocalcin Suppression (ED80 dose) (osteocalcin; po): >10 mg/kg
ED50 [1]: 2.91 mg/kg
Cortical bone formation rate (BFR) EAUC50 ([2]; data set 2): 0.35
Cortical bone formation rate (BFR) EAUC80 ([2]; data set 2): 1.76
Cortical bone formation rate (BFR) EAUC50 (AUC 0-4 hr) ([2]; mice): 270 ng·h/mL
Cortical bone formation rate (BFR) EAUC80 (AUC 0-4 hr) ([2]; mice): 1550 ng·h/mL
Disease incidence (traditional mCIA) EAUC50 (AUC 0-4 hr) [3]: 0.04 µg·h/mL
Disease incidence (traditional mCIA) EAUC80 (AUC 0-4 hr) [3]: 0.10 µg·h/mL
